The values below come from US9795646B2, “Boswellia oil, its fractions and compositions for enhancing brain function” (LAILA NUTRACEUTICALS, priority 2010, dated 2017).

The target in series [1] is T1, acetylcholine esterase (AChE) (Rattus norvegicus, UniProt P37136).
T1 construct: The cell extracts were used as samples for measuring the acetylcholine esterase (AChE) activity; endogenous in cells; host or cells: rat pheochromocytoma PC 12 cells, induced with β-amyloid peptide
T1 sequence (P37136 32-614): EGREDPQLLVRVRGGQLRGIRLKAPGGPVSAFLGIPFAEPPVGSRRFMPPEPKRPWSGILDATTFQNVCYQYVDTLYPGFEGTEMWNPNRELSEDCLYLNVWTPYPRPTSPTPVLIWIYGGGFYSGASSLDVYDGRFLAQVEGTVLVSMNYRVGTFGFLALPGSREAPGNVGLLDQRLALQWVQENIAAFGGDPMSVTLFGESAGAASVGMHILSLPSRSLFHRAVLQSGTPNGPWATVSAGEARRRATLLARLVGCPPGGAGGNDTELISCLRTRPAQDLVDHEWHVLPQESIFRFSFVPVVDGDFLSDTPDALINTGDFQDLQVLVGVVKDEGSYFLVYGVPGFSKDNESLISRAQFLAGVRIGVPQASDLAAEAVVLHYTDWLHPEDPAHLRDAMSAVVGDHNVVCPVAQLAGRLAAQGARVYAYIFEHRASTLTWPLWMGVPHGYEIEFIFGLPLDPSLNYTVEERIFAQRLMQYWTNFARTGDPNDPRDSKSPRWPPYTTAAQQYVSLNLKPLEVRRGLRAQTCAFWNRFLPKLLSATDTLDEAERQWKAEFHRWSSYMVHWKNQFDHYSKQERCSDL
Description: Acetylcholine esterase inhibitory activity in β-amyloid peptide induced PC 12 cells. The conditions noted are these: PC 12 cells. The format is cell-based. On the procedure: (§1) As a part of developing new agents for improving brain/mental function and alleviating disease conditions related to cognition and memory deficits, a large number of plant extracts have been screened for their inhibitory property on Acetylcholinesterase enzyme activity. The assay was performed in vitro by the method of Ellman et al., with minor modifications, using acetylthiocholine iodide as a substrate (Lee J. H., et. al. Arch Pharm Res 2004, 27(1): 53-56). […] Its acetylcholinesterase inhibitory activity was also evaluated by a cell based in vitro assay in Rat pheochromocytoma PC 12 cells. […] Rat pheochromocytoma PC 12 cells were equally distributed with phenol red free Dulbecco's modified Eagle's red medium (DMEM) (Sigma Life Science, USA) containing 10% fetal bovine serum (FBS) in 24-well plate. […] Thereafter, cells were induced with 1 μg/mL of β-amyloid peptide (Calbiochem, USA) for 24 h at 37° C. After 24 h, cells were collected and washed twice with 1×PBS by centrifugation at 1200 rpm for 5 min at 4° C. The cell extracts were prepared in solubilization buffer and the cell lysates were analyzed for acetylcholine esterase (AChE) activity.
The inhibitory property on the enzyme activity was assessed in β-amyloid peptide induced-rat pheochromocytoma PC 12 cells. Rat pheochromocytoma PC 12 cells were equally distributed with phenol red free Dulbecco's modified Eagle's red medium (DMEM) (Sigma Life Science, USA) containing 10% fetal bovine serum (FBS) in 24-well plate. […] Thereafter, cells were induced with 1 μg/mL of β-amyloid peptide (Calbiochem, USA) for 24 h at 37° C. After 24 h, cells were collected and washed twice with 1×PBS by centrifugation at 1200 rpm for 5 min at 4° C. Cell extracts were prepared in solubilization buffer (10 mM Tris, pH 7.2; 100 mM NaCl, 50 mM MgCl2, 1% Triton X-100). The cell extracts were used as samples for measuring the acetylcholine esterase (AChE) activity.
Cell extract samples (100 μl) were dispensed into each well of 96-well microtitre plate. Fifty micro liters of DTNB (Dithiobisnitro benzoate) solution was added to each well and incubated for 5 min at room temperature. After incubation, 50 μl of acetyl choline iodide solution was added to each well and absorbance was read immediately at 405 nm for 12 min at 2 min intervals. A standard curve was constructed by using serial concentrations of acetyl cholinesterase (0-100 mU). Total protein present in 100 μl aliquot of cell extract was calculated by Bradford method and the enzyme activity was normalized and expressed as unit activity per milligram of protein.

Series [2] concerns the target T2, 5-lipoxygenase (5-LOX) (Homo sapiens, UniProt P09917).
T2 sequence (P09917 1-674): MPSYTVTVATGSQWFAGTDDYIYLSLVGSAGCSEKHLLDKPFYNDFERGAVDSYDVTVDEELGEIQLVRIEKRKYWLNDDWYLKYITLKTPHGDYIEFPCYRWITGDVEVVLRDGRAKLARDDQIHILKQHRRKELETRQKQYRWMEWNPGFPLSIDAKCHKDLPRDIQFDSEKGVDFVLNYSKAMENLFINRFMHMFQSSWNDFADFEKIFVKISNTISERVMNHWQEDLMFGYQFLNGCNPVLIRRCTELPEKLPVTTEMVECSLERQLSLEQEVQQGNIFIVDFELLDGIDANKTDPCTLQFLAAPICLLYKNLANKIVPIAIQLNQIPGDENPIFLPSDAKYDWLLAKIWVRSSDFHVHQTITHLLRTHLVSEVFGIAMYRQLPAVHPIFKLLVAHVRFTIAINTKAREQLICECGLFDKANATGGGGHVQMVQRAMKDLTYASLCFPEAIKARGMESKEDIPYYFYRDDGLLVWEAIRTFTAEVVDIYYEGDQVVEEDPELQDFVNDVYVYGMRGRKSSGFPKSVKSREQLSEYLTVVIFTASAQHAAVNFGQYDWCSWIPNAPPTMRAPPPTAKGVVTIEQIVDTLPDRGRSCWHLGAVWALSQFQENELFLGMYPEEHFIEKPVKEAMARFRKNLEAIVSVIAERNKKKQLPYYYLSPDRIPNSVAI
The conditions noted are these: read-out: IC50 (5-LOX inhibition); cited from earlier work.

The target of series [3] is Acetylcholinesterase (Homo sapiens, UniProt P22303). Briefly: Acetylcholinesterase inhibitory activity, in vitro enzymatic assay (Ellman method). The conditions noted are these: Table 3. The format is biochemical. How it is done:
as §1
Acetylcholinesterase activity is measured using the substrate acetylthiocholine iodide, which is converted to thiocholine. The reaction of thiocholine with the chromogenic substrate Dithionitrobenzoic acid (DTNB) leads to the formation of a yellow anion, Nitrobenzoic acid, which absorbs strongly at 412 nm. Incubation was done for 10 min.
The AChE assay was performed by the method of Ellman et al, with minor modifications, using acetylthiocholine iodide as a substrate (Lee J. H., et. al. Arch Pharm Res 2004, 27(1): 53-56). Ellmans reaction mixture contains 0.5 mM acetylthiocholine iodide and 1 mM 5,5′-dithio-bis-(2-nitrobenzoic acid) in a 50 mM sodium phosphate buffer (pH 8.0). […] For blanks, enzyme was replaced with phosphate buffer. The reaction mixture was mixed thoroughly, 100 μl of Ellman's reagent was added and incubated at room temperature for 10 min. The absorbance was measured at 412 nm using microplate reader. The percentage inhibition of enzyme activity was calculated by comparing OD's of tests wells with that of control wells using the following formula. Calculations: % inhibition=[(control−sample)/control]×100.
For orientation: Ellman's reagent forms a yellow product with free thiols.

The nature of series [4]: Comparative bioavailability of LI01008 (bisdemethylcurcumin) and its composition (serum, HPLC). As to conditions: oral, LI13124F1 450 mg/kg, LI01008 300 mg/kg.
Series [5] concerns Sprague Dawley rats. Briefly: Spatial learning and memory improvement, elevated radial arm maze (RAM). The format is in vivo, rat. As to conditions: positive control 150 mg/kg, vs control group. An excerpt:
The animal study protocol was approved by institutional animal ethics committee. Sprague Dawley rats were acclimatized for one week and healthy rats were selected for the study. The selected rats were pre-trained in elevated radial arm maze (RAM) adapted rats were allocated to various treatment groups each containing eight rats. After completion of pre-training, the oral treatment was initiated to the animals and continued daily up to two weeks. During this treatment phase the rats were placed on the RAM for 10 min each to recognize the food pellets present in the three different colored arms. During training the spatial learning was estimated by measuring various parameters like number of days required to learn the task, latency in finding food and number of wrong entries/attempts. After this treatment and training the animals were given rest without treatment or training for one week (3rd week). On 4th week, the animals were treated with allocated doses of test products and memory retention test was assessed using the same animals by measuring latency and number of wrong entries. The data was analyzed using ANOVA followed by a suitable post-hoc test.

Values after ≈ are worked out from the molar mass of the structure shown. Values joined by “and” are separate entries in the source; they are usually repeats but may differ in a detail not shown here. Equal values may be shown once.

Chain of Acetylcholinesterase (P22303 32-614, species assumed): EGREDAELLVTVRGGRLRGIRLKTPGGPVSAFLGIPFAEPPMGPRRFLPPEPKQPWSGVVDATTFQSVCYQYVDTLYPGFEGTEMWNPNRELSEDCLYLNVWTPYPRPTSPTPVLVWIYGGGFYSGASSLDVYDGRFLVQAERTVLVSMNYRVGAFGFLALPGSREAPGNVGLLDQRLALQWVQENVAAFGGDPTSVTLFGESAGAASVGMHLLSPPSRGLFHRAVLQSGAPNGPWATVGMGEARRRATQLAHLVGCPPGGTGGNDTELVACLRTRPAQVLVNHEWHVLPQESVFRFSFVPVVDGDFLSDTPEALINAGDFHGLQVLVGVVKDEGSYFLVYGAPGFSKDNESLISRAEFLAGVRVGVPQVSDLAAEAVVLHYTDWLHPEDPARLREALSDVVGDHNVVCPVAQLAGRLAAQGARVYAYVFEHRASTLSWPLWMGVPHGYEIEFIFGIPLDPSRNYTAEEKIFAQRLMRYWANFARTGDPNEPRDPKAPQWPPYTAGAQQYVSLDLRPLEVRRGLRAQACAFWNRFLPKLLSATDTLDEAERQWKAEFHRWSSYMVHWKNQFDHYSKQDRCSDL

For the compound 3-O-acetyl-11-keto-β-boswellic acid, the “% inhibition in AChE activity” value in series [1] (100 ng/ml, Table 5) stood at 41.67%. For the same compound, the 50% inhibitory concentration (IC50) (as a rule, the concentration needed to halve the response being measured) in series [2] was 1500 nM. For the same compound, in series [3], the % Inhibition (usually the percentage by which the read-out fell short of the control) at concentrations of 25 ng was 9.64%, the “% Inhibition at concentrations of 50 ng” value was determined as 16.07%, the “% Inhibition at concentrations of 100 ng” value is 27.5% and the 50% inhibitory concentration (IC50) is more than 0.1 µg/mL.

As to `CC(=O)O[C@@H]1CC[C@@]2(C)[C@@H](CC[C@]3(C)[C@@H]2CC=C2[C@@H]4CC(C)(C)CC[C@]4(C)CC[C@]23C)[C@@]1(C)C(=O)O` [3-O-acetyl-α-boswellic acid], in series [1] (100 ng/ml, Table 5), the “% inhibition in AChE activity” value came to 29.22%. For the same compound, in series [3], the “% Inhibition at concentrations of 25 ng” value is reported as 14.86%, the “% Inhibition at concentrations of 50 ng” value was 21.28%, the “% Inhibition at concentrations of 100 ng” value was determined as 33.11% and the IC50 was more than 0.1 µg/mL.

In the case of `CC(=O)O[C@@H]1CC[C@@]2(C)[C@@H](CC[C@]3(C)[C@@H]2CC=C2[C@@H]4[C@@H](C)[C@H](C)CC[C@]4(C)CC[C@]23C)[C@@]1(C)C(=O)O` [3-O-acetyl-β-boswellic acid], in series [1] (100 ng/ml, Table 5), the “% inhibition in AChE activity” value turned out to be 37.34%. For the same compound, in series [3], the “% Inhibition at concentrations of 25 ng” value came out at 36.29%, the “% Inhibition at concentrations of 50 ng” value is 40.32%, the “% Inhibition at concentrations of 100 ng” value was 52.02% and the concentration for half-maximal inhibition (IC50) stood at 0.09177 µg/mL (≈ 0.184 µM).

`C[C@H]1[C@H](C)CC[C@]2(C)CC[C@]3(C)C(=CC(=O)[C@@H]4[C@@]5(C)CC[C@@H](O)[C@](C)(C(=O)O)[C@@H]5CC[C@]43C)[C@H]12` [11-keto-β-boswellic acid]: the “% inhibition in AChE activity” value in series [1] (100 ng/ml, Table 5) was found to be 31.39%. Also, in series [3], the “% Inhibition at concentrations of 25 ng” value turned out to be 11.82%, the “% Inhibition at concentrations of 50 ng” value was found to be 16.36%, the “% Inhibition at concentrations of 100 ng” value stood at 24.55% and the IC50 was more than 0.1 µg/mL.

Consider `O=C(/C=C/c1ccc(O)c(O)c1)CC(=O)/C=C/c1ccc(O)c(O)c1` [LI 01008, bisdemethylcurcumin], for which the “Serum concentration of bisdemethylcurcumin” value in series [4] (time after admn. 0, suspension in 0.5% CMC) was 0; in series [4] (time after admn. 0.5 (hours)), 0.07; in series [4] (time after admn. 1 (hours)), 0.1085; in series [4] (time after admn. 2 (hours)) it was 0.078; in series [4] (time after admn. 4 (hours)), 0.035; in series [4] (time after admn. 6 (hours)) it was 0.00535. Further, the “Serum concentration of bisdemethylcurcumin” value in series [4] (time after admn. 8 (hours)) and in series [4] (time after admn. 12 (hours)) was 0 each time.

Take `CN(C)C(=O)Oc1cccc([N+](C)(C)C)c1` [Neostigmin]: the “% inhibition in AChE activity” value was 49.1% and 49.09% in series [1] (20 ng/ml, Table 4); 54.65% in series [1] (20 ng/ml, Table 5).

Regarding `NC(=O)CN1CCCC1=O` [Piracetam], the “spatial learning (reduction in latency and Number of wrong entries)” value in series [5] is “significant improvement”.

`CC1(C)CC[C@]2(C)CC[C@]3(C)C(=CC[C@@H]4[C@@]5(C)CC[C@@H](O)[C@](C)(C(=O)O)[C@@H]5CC[C@]43C)[C@@H]2C1` [α-boswellic acid]: the “% inhibition in AChE activity” value in series [1] (100 ng/ml, Table 5) stood at 38.42%. Further, in series [3], the “% Inhibition at concentrations of 25 ng” value is 13.85%, the “% Inhibition at concentrations of 50 ng” value was found to be 21.92%, the “% Inhibition at concentrations of 100 ng” value is 39.23% and the IC50 was more than 0.1 µg/mL.

Take `C[C@H]1[C@H](C)CC[C@]2(C)CC[C@]3(C)C(=CC[C@@H]4[C@@]5(C)CC[C@@H](O)[C@](C)(C(=O)O)[C@@H]5CC[C@]43C)[C@H]12` [β-boswellic acid]: in series [1] (100 ng/ml, Table 5), the “% inhibition in AChE activity” value was 46.54%. In series [3], the “% Inhibition at concentrations of 25 ng” value came out at 16.75%, the “% Inhibition at concentrations of 50 ng” value is 21.23%, the “% Inhibition at concentrations of 100 ng” value came out at 31.37% and the 50% inhibitory concentration (IC50) is more than 0.1 µg/mL.
